Results: US8580829B2 (Boehringer Ingelheim International GmbH, priority 2010, dated 2013)

Assays:
[1] = tested on: synthesis of LTB4 in human whole blood; assay: human whole blood LTB4 production inhibition assay; format: cell-based; details: Homo sapiens, heparinized human whole blood, calcimycin 20 μM; read-out: hWB LTB4 IC50
Summary of the method: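 Heparinized human whole blood was preincubated with compound for 15 min at 37° C, then stimulated with calcimycin (20 μM final, in PBS pH 7.4) for a further 30 min at 37° C. Plasma LTB4 was quantified by antibody-based homogeneous time-resolved fluorescence.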

[2] = biological target: T1, recombinant human FLAP protein (Homo sapiens, UniProt P20292); assay: FLAP binding assay (Scintillation Proximity Assay, displacement of [125I]L-691,831); details: recombinant human FLAP membranes, [125I]L-691,831 probe; read-out: FLAP SPA IC50
T1 construct: made in house; host or cells: Sf9 insect cells (100,000 x g membrane fraction)
T1 sequence (P20292 1-161): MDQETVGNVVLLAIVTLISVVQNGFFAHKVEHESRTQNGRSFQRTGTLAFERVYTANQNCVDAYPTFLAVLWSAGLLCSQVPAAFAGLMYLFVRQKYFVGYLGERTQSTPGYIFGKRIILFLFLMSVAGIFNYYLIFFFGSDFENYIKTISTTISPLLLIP
Summary of the method: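 Membranes came from Sf9 insect cells expressing recombinant human FLAP, collected as the 100,000×g pellet in Tris pH 7.5/MgCl2/EDTA buffer. 5 μg membrane protein was coupled to WGA SPA beads for 1 h.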

SMILES: Nc1ncc(-c2ccc(C3(c4noc(-c5cccnc5)n4)CCC3)cc2)cn1 [Example 143, 5-{4-[1-(5-pyridin-3-yl-1,2,4-oxadiazol-3-yl)-cyclobutyl]-phenyl}-pyrimidin-2-ylamine]
- IC50 [1]: 0.25 µM
- IC50 [2]: 0.0022 µM

SMILES: Nc1ncc(-c2ccc(C3(c4noc(-c5ccccc5)n4)CCC3)cc2)cn1 [Example 144, 5-{4-[1-(5-Phenyl-1,2,4-oxadiazol-3-yl)-cyclobutyl]-phenyl}-pyrimidin-2-ylamine]
- IC50 [1]: 0.47 µM
- IC50 [2]: 0.0014 µM

SMILES: Nc1ncc(-c2ccc(C3(c4noc(-c5ccccn5)n4)CCOCC3)cc2)cn1 [Example 145, 5-{4-[4-(5-pyridin-2-yl-1,2,4-oxadiazol-3-yl)-tetrahydro-pyran-4-yl]-phenyl}-pyrimidin-2-ylamine]
- IC50 [1]: > 5 µM
- IC50 [2]: 0.078 µM

SMILES: Nc1ncc(-c2ccc(C3(c4noc(-c5cccnc5)n4)CCOCC3)cc2)cn1 [Example 146, 5-{4-[4-(5-Pyridin-3-yl-1,2,4-oxadiazol-3-yl)-tetrahydro-pyran-4-yl]-phenyl}-pyrimidin-2-ylamine]
- IC50 [1]: 0.84 µM
- IC50 [2]: 0.027 µM

SMILES: Nc1ncc(-c2ccc(C3(c4noc(-c5ccncc5)n4)CCOCC3)cc2)cn1 [Example 147, 5-{4-[4-(5-Pyridin-4-yl-1,2,4-oxadiazol-3-yl)-tetrahydro-pyran-4-yl]-phenyl}-pyrimidin-2-ylamine]
- IC50 [1]: 1.7 µM
- IC50 [2]: 0.033 µM

SMILES: Cc1cc(-c2nc(C3(c4ccc(-c5cnc(N)nc5)cc4)CCOCC3)no2)n(C)n1 [Example 148, 5-(4-{4-[5-(2,5-Dimethyl-2H-pyrazol-3-yl)-1,2,4-oxadiazol-3-yl]-tetrahydro-pyran-4-yl}-phenyl)-pyrimidin-2-ylamine]
- IC50 [1]: 3.3 µM
- IC50 [2]: 0.046 µM

SMILES: Nc1ncc(-c2ccc(C3(c4noc(-c5ccccc5)n4)CCOCC3)cc2)cn1 [Example 149, 5-{4-[4-(5-Phenyl-1,2,4-oxadiazol-3-yl)-tetrahydro-pyran-yl]-phenyl}-pyrimidin-2-ylamine]
- IC50 [1]: > 5 µM
- IC50 [2]: 0.015 µM

SMILES: Nc1ncc(-c2ccc(C3(c4noc(Cc5ccccc5)n4)CCOCC3)cc2)cn1 [Example 150, 5-{4-[4-(5-Benzyl-1,2,4-oxadiazol-3-yl)-tetrahydro-pyran-4-yl]-phenyl}-pyrimidin-2-ylamine]
- IC50 [1]: > 5 µM
- IC50 [2]: 0.18 µM

SMILES: Nc1ncc(-c2ccc(C3(c4noc(COCc5ccccc5)n4)CCOCC3)cc2)cn1 [Example 151, 5-{4-[4-(5-Benzyloxymethyl-1,2,4-oxadiazol-3-yl)-tetrahydro-pyran-4-yl]-phenyl}-pyrimidin-2-ylamine]
- IC50 [1]: > 5 µM
- IC50 [2]: 0.21 µM

SMILES: Cc1ccc(-c2nc(C3(c4ccc(-c5cnc(N)nc5)cc4)CCC3)no2)cn1 [Example 152, 5-(4-{1-[5-(6-Methyl-pyridin-3-yl)-1,2,4-oxadiazol-3-yl]-cyclobutyl}-phenyl)-pyrimidin-2-ylamine]
- IC50 [1]: 0.21 µM
- IC50 [2]: 0.0035 µM

SMILES: Nc1ncc(-c2ccc(C3(c4noc(-c5c[nH]cn5)n4)CCC3)cc2)cn1 [Example 153, 5-(4-{1-[5-(1H-Imidazol-4-yl)-1,2,4-oxadiazol-3-yl]-cyclobutyl}-phenyl)-pyrimidin-2-ylamine]
- IC50 [1]: 0.27 µM
- IC50 [2]: 0.0025 µM

SMILES: Cc1ccc(-c2nc(C3(c4ccc(-c5cnc(N)nc5)cc4)CCCCC3)no2)cn1 [Example 154, 5-(4-{1-[5-(6-Methyl-pyridin-3-yl)-1,2,4-oxadiazol-3-yl]-cyclohexyl}-phenyl)-pyrimidin-2-ylamine]
- IC50 [1]: 0.81 µM
- IC50 [2]: 0.0017 µM

SMILES: Cc1ccc(-c2nc(C3(c4ccc(-c5cnc(N)nc5)cc4)CCCC3)no2)cn1 [Example 155, 5-(4-{1-[5-(6-Methyl-pyridin-3-yl)-1,2,4-oxadiazol-3-yl]-cyclopentyl}-phenyl)-pyrimidin-2-ylamine]
- IC50 [1]: 0.4 µM
- IC50 [2]: 0.0028 µM

SMILES: Nc1ncc(-c2ccc(C3(c4noc(-c5nc[nH]n5)n4)CCC3)cc2)cn1 [Example 156, 5-(4-{1-[5-(2H-1,2,4-Triazol-3-yl)-1,2,4-oxadiazol-3-yl]-cyclobutyl}-phenyl)-pyrimidin-2-ylamine]
- IC50 [1]: > 5 µM
- IC50 [2]: 0.013 µM
